Series [1] can be described thus: Assay (X) Chemical stability assessment by RP-UPLC. The format is physicochemical. The following applies: pH 8.15, 14 days at 37° C. vs 5° C., 333 μM.
Series [2] is described as follows: Assay (XI) Pharmacokinetic study in minipigs. The format is in vivo, Göttingen minipigs. The following applies: i.v. administration, terminal half-life; for half-life: minipig, iv, read-out: iv PK minipig [T½] (converted). The method, then:
Buffer: • 50 mM Dinatriumphosphatdihydrat • 184 mM Propylenglycol • 58 mM Phenol • pH adjusted to 8.15 with H3PO4. In cases where pH was adjusted to 8.15 after re-suspension of analogues, 0.2 M NaOH was used. Assay (XI) Pharmacokinetic Study in Minipigs
This is done in a pharmacokinetic (PK) study, whereamong other parameters the terminal half-life and the clearance of the derivative in question is determined. Increasing the terminal half-life and decreasing the clearance means that the compound of study is eliminated slower from the body.
Male or female Göttingen minipigs were obtained from Ellegaard Göttingen Minipigs (Dalmose, Denmark) approximately 7-14 months of age and weighing from approximately 16-35 kg were used in the studies. The minipigs were housed either individually (pigs with permanent catheters) or in a group and fed restrictedly once or twice daily with SDS minipig diet (Special Diets Services, Essex, UK). In some studies two permanent central venous catheters were implanted in vena cava caudalis or cranialis in each animal after at least 2 weeks of acclimatisation. […] On each dosing occasion these pigs were instrumented with a venflon in one ear vein through which the derivatives were dosed. Blood sampling was done by venipuncture in v. jugularis or v. cava cranialis
The animals were either unfasted or fasted for approximately 18 h before dosing and from 0 to 4 h after dosing, but had ad libitum access to water during the whole period.
Intravenous injections (the volume corresponding to usually 2-3 nmol/kg, for example 0.1 ml/kg) of the compounds were given through one catheter or through the venflon, and blood was sampled at predefined time points for up till 13 days post dosing (preferably through the other catheter or by venipuncture). Blood samples (for example 0.8 ml) were collected in tubes with EDTA buffer (8 mM) (sometimes aprotinin 500 KIU/ml blood was added) and then centrifuged at 4° C. and 1942 G for 10 minutes. […] Based on these measurements, time-plasma concentration profiles for the compound of study are plotted and a so-called non-compartmental pharmacokinetic analysis of the data is performed in WinNonlin v. 5.0 or Phoenix v. 6.2 (Pharsight Inc., Mountain View, Calif., USA) or other relevant software for PK analysis. For most compounds, the terminal part of the plasma-concentration profiles will be linear when drawn in a semi-logarithmic plot, reflecting that after the initial distribution, drug is removed from the body at a constant fractional rate. The rate (lambda Z or is equal to minus the slope of the terminal part of the plot. From this rate, also the terminal half-life may be calculated, as t½=ln(2)/λz (see, e.g., Johan Gabrielsson and Daniel Weiner: Pharmacokinetics and Pharmacodynamic Data Analysis. Concepts & Applications, 3rd Ed., Swedish Pharmaceutical Press, Stockholm (2000)).
Clearance is defined as the dose (D) divided by area under the curve (AUC) on the plasmaconcentration versus time profile (Rowland, M and Tozer T N: Clinical Pharmacokinetics: Concepts and Applications, 3rd edition, 1995 Williams Wilkins)

A further series concerns the target T1, glucagon receptor (Homo sapiens, UniProt P47871).
T1 construct: expressed in transfected cells
The series can be described thus: Assay (I) Glucagon activity (cAMP biosensor, FLIPR). The format is cell-based.

Read-outs that look alike come from different tables or passages of the source. Numbered stars: 1 amine (or outer) side, 2 acyl side, 3 side chain; on linkers, the order of the positions; unused ones are H or OH. Side chains are listed from the residue outwards. Peptide text beside a SMILES is read from it. * marks the point of attachment. C18 diacid = O=C(O)CCCCCCCCCCCCCCCCC(=O)*; C16 diacid = O=C(O)CCCCCCCCCCCCCCC(=O)*; γGlu = O=C(O)[C@H](CCC(=O)[*:2])N[*:1]; AEEA = NCCOCCOCC(=O)O

T1 sequence (P47871 26-477): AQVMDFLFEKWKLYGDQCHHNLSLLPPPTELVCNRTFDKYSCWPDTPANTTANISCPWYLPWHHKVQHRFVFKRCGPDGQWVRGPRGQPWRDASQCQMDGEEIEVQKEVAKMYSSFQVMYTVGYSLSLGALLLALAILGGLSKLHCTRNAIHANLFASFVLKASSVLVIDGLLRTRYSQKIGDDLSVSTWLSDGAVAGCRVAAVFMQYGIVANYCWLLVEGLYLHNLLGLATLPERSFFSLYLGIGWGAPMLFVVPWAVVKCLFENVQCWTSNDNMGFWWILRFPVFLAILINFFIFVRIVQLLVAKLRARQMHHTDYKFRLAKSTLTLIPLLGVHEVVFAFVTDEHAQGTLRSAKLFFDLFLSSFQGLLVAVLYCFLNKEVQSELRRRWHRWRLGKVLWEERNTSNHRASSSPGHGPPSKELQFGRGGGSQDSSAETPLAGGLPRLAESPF

As for `CC(C)C[C@H](NC(=O)[C@H](CC(=O)O)NC(=O)[C@H](CC(C)C)NC(=O)[C@H](Cc1ccc(O)cc1)NC(=O)[C@H](CCCCN)NC(=O)[C@H](CO)NC(=O)[C@H](Cc1ccc(O)cc1)NC(=O)[C@H](CC(=O)O)NC(=O)[C@H](CO)NC(=O)[C@@H](NC(=O)[C@H](Cc1ccccc1)NC(=O)[C@@H](NC(=O)CNC(=O)[C@H](CCC(N)=O)NC(=O)[C@H](CO)NC(=O)[C@@H](N)Cc1c[nH]cn1)[C@@H](C)O)[C@@H](C)O)C(=O)N[C@@H](CCCNC(=N)N)C(=O)N[C@@H](CCCNC(=N)N)C(=O)N[C@@H](C)C(=O)N[C@@H](CCC(N)=O)C(=O)N[C@@H](CC(=O)O)C(=O)N[C@@H](Cc1ccccc1)C(=O)N[C@H](C(=O)N[C@@H](CCCCNC(=O)CC[C@H](NC(=O)CC[C@H](NC(=O)COCCOCCNC(=O)COCCOCCNC(=O)CC[C@H](NC(=O)CCCCCCCCCCCCCCCCC(=O)O)C(=O)O)C(=O)O)C(=O)O)C(=O)N[C@@H](Cc1c[nH]c2ccccc12)C(=O)N[C@@H](CC(C)C)C(=O)N[C@@H](CC(C)C)C(=O)N[C@@H](CO)C(=O)N[C@H](C(=O)O)[C@@H](C)O)C(C)C` [Example 13, N^ε24-[(4S)-4-carboxy-4-[[(4S)-4-carboxy-4-[[2-[2-[2-[[2-[2-[2-[[(4S)-4-carboxy-4-(17-carboxyheptadecanoylamino)butanoyl]amino]ethoxy]ethoxy]acetyl]amino]ethoxy]ethoxy]acetyl]amino]butanoyl]amino]butanoyl]-[Leu^16,Lys^24,Leu^27,Ser^25]-Glucagon] (H-HSQGTFTSDYSKYLDLRRAQDFVK([γGlu-γGlu-AEEA-AEEA-γGlu-C18 diacid])WLLST-OH; N-terminus and C-terminus assumed), the “Chemical stability [Purity loss/14 days 37 C.]” value in series [1] is listed as 5.1%. Also, the half-life in series [2] (in vivo) was 76.4 h.

With `CC(C)C[C@H](NC(=O)[C@H](Cc1c[nH]c2ccccc12)NC(=O)[C@H](CCCCNC(=O)CC[C@H](NC(=O)CC[C@H](NC(=O)COCCOCCNC(=O)COCCOCCNC(=O)CC[C@H](NC(=O)CCCCCCCCCCCCCCCCC(=O)O)C(=O)O)C(=O)O)C(=O)O)NC(=O)[C@@H](NC(=O)[C@H](Cc1ccccc1)NC(=O)[C@H](CCC(=O)O)NC(=O)[C@H](CCC(N)=O)NC(=O)[C@H](C)NC(=O)[C@H](CCCNC(=N)N)NC(=O)[C@H](CCCNC(=N)N)NC(=O)[C@@H](NC(=O)[C@H](CC(=O)O)NC(=O)[C@H](CC(C)C)NC(=O)[C@H](Cc1ccc(O)cc1)NC(=O)[C@H](CCCCN)NC(=O)[C@H](CO)NC(=O)[C@@H](NC(=O)[C@H](CC(=O)O)NC(=O)[C@H](CO)NC(=O)[C@@H](NC(=O)[C@H](Cc1ccccc1)NC(=O)[C@@H](NC(=O)CNC(=O)[C@H](CCC(N)=O)NC(=O)[C@H](CO)NC(=O)[C@@H](N)Cc1c[nH]cn1)[C@@H](C)O)[C@@H](C)O)C(C)C)[C@@H](C)O)C(C)C)C(=O)N[C@@H](CC(C)C)C(=O)N[C@@H](CO)C(=O)N[C@H](C(=O)O)[C@@H](C)O` [Example 38, N^ε24-[(4S)-4-carboxy-4-[[(4S)-4-carboxy-4-[[2-[2-[2-[[2-[2-[2-[[(4S)-4-carboxy-4-(17-carboxyheptadecanoylamino)butanoyl]amino]ethoxy]ethoxy]acetyl]amino]ethoxy]ethoxy]acetyl]amino]butanoyl]amino]butanoyl]-[Val10,Thr16,Glu21,Lys24,Leu27,Ser28]-Glucagon] (H-HSQGTFTSDVSKYLDTRRAQEFVK([γGlu-γGlu-AEEA-AEEA-γGlu-C18 diacid])WLLST-OH), the “Chemical stability [Purity loss/14 days 37 C.]” value in series [1] is 4.2%. Moreover, the “iv PK minipig [T½]” value in series [2] was determined as 83.0 h.

As to `CC(C)C[C@H](NC(=O)[C@H](CC(=O)O)NC(=O)[C@H](CC(C)C)NC(=O)[C@H](Cc1ccc(O)cc1)NC(=O)[C@H](CCCNC(=N)N)NC(=O)[C@H](CO)NC(=O)[C@H](Cc1ccc(O)cc1)NC(=O)[C@H](CC(=O)O)NC(=O)[C@H](CO)NC(=O)[C@@H](NC(=O)[C@H](Cc1ccccc1)NC(=O)[C@@H](NC(=O)CNC(=O)[C@H](CCC(N)=O)NC(=O)[C@H](CO)NC(=O)[C@@H](N)Cc1c[nH]cn1)[C@@H](C)O)[C@@H](C)O)C(=O)N[C@@H](CCCNC(=N)N)C(=O)N[C@@H](CCCNC(=N)N)C(=O)N[C@@H](C)C(=O)N[C@@H](CCC(N)=O)C(=O)N[C@@H](CC(=O)O)C(=O)N[C@@H](Cc1ccccc1)C(=O)N[C@H](C(=O)N[C@@H](CCCCNC(=O)CC[C@H](NC(=O)CC[C@H](NC(=O)COCCOCCNC(=O)COCCOCCNC(=O)CC[C@H](NC(=O)CCCCCCCCCCCCCCC(=O)O)C(=O)O)C(=O)O)C(=O)O)C(=O)N[C@@H](Cc1c[nH]c2ccccc12)C(=O)N[C@@H](CC(C)C)C(=O)N[C@@H](CC(C)C)C(=O)N[C@@H](CO)C(=O)N[C@H](C(=O)O)[C@@H](C)O)C(C)C` [Example 25, N^ε24-[(4S)-4-carboxy-4-[[(4S)-4-carboxy-4-[[2-[2-[2-[[2-[2-[2-[[(4S)-4-carboxy-4-(15-carboxypentadecanoylamino)butanoyl]amino]ethoxy]ethoxy]acetyl]amino]ethoxy]ethoxy]acetyl]amino]butanoyl]amino]butanoyl]-[Arg^12,Leu^16,Lys^24,Leu^27,Ser^28]-Glucagon] (H-HSQGTFTSDYSRYLDLRRAQDFVK([γGlu-γGlu-AEEA-AEEA-γGlu-C16 diacid])WLLST-OH), on glucagon receptor, the EC50 is 0.067 nM. Also, the half-life in series [2] (both sexes, Göttingen, plasma) was 59.6 h.

On to `CC(C)C[C@H](NC(=O)[C@H](Cc1ccc(O)cc1)NC(=O)[C@H](CCCNC(=N)N)NC(=O)[C@H](CO)NC(=O)[C@H](Cc1ccc(O)cc1)NC(=O)[C@H](CC(=O)O)NC(=O)[C@H](CO)NC(=O)[C@@H](NC(=O)[C@H](Cc1ccccc1)NC(=O)[C@@H](NC(=O)CNC(=O)[C@H](CCC(N)=O)NC(=O)[C@H](CO)NC(=O)[C@@H](N)Cc1c[nH]cn1)[C@@H](C)O)[C@@H](C)O)C(=O)N[C@@H](CC(=O)O)C(=O)N[C@@H](C)C(=O)N[C@@H](CCCNC(=N)N)C(=O)N[C@@H](CCCNC(=N)N)C(=O)N[C@@H](C)C(=O)N[C@@H](CCC(N)=O)C(=O)N[C@@H](CC(=O)O)C(=O)N[C@@H](Cc1ccccc1)C(=O)N[C@H](C(=O)N[C@@H](CCCCNC(=O)CC[C@H](NC(=O)CC[C@H](NC(=O)COCCOCCNC(=O)COCCOCCNC(=O)CC[C@H](NC(=O)CCCCCCCCCCCCCCCCC(=O)O)C(=O)O)C(=O)O)C(=O)O)C(=O)N[C@@H](Cc1c[nH]c2ccccc12)C(=O)N[C@@H](CC(C)C)C(=O)N[C@@H](CC(C)C)C(=O)N[C@@H](CO)C(=O)N[C@H](C(=O)O)[C@@H](C)O)C(C)C` [Example 16, N^ε24-[(4S)-4-carboxy-4-[[(4S)-4-carboxy-4-[[2-[2-[2-[[2-[2-[2-[[(4S)-4-carboxy-4-(17-carboxyheptadecanoylamino)butanoyl]amino]ethoxy]ethoxy]acetyl]amino]ethoxy]ethoxy]acetyl]amino]butanoyl]amino]butanoyl]-[Arg^12,Ala^16,Lys^24,Leu^27,Ser^28]-Glucagon] (H-HSQGTFTSDYSRYLDARRAQDFVK([γGlu-γGlu-AEEA-AEEA-γGlu-C18 diacid])WLLST-OH), for which, at glucagon receptor, the EC50 came to 0.158 nM. The half-life in series [2] (both sexes, Göttingen, plasma) is 86.6 h.

The values above are taken from patent US9486506B2 (Novo Nordisk A/S, priority 2011, dated 2016).
